According to the NIST ThermoML archive (doi:10.1016/j.jct.2015.05.006):
Numbers after ± are expanded uncertainties.

Legend:
[1] = xn = mol fraction of the nth substance listed; conditions: Liquid, Vibrating tube method
[2] = relative permittivity at various frequencies (dimensionless); xn = mol fraction of the nth substance listed; conditions: Liquid, Frequency=1 MHz, Parallel plate capacitor

COCCOC [1,2-dimethoxyethane] + C1CCCCC1
96.6 kPa
Conditions	mass density, [1] [kg/m3]	relative permittivity, [2]
288.15 K, x2 = 0	872.06 ± 1	7.41 ± 0.07
288.15 K, x2 = 0.0459	–	7.02 ± 0.07
288.15 K, x2 = 0.0497	865.63 ± 1	–
288.15 K, x2 = 0.1021	859.14 ± 1	–
288.15 K, x2 = 0.1034	–	6.56 ± 0.07
288.15 K, x2 = 0.1974	847.96 ± 1	–
288.15 K, x2 = 0.2009	–	5.84 ± 0.06
288.15 K, x2 = 0.3013	–	5.17 ± 0.05
288.15 K, x2 = 0.3031	836.42 ± 1	–
288.15 K, x2 = 0.4026	826.35 ± 1	–
288.15 K, x2 = 0.4027	–	4.55 ± 0.05
288.15 K, x2 = 0.4967	817.52 ± 1	–
288.15 K, x2 = 0.5031	–	3.99 ± 0.04
288.15 K, x2 = 0.5998	808.62 ± 1	3.51 ± 0.04
288.15 K, x2 = 0.6961	801.06 ± 1	–
288.15 K, x2 = 0.7015	–	3.06 ± 0.03
288.15 K, x2 = 0.7953	–	2.69 ± 0.03
288.15 K, x2 = 0.8006	793.78 ± 1	–
288.15 K, x2 = 0.9017	–	2.33 ± 0.02
288.15 K, x2 = 0.9033	787.7 ± 1	–
288.15 K, x2 = 0.9494	–	2.19 ± 0.02
288.15 K, x2 = 0.9514	785.33 ± 1	–
298.15 K, x2 = 0	861.17 ± 1	7.07 ± 0.07
298.15 K, x2 = 0.0446	855.02 ± 1	–
298.15 K, x2 = 0.0475	–	6.7 ± 0.07
298.15 K, x2 = 0.0978	848.89 ± 1	–
298.15 K, x2 = 0.098	–	6.31 ± 0.06
298.15 K, x2 = 0.1963	837.39 ± 1	–
298.15 K, x2 = 0.2057	–	5.58 ± 0.06
298.15 K, x2 = 0.3034	–	4.96 ± 0.05
298.15 K, x2 = 0.3038	825.79 ± 1	–
298.15 K, x2 = 0.3952	–	4.43 ± 0.04
298.15 K, x2 = 0.4024	815.96 ± 1	–
298.15 K, x2 = 0.5013	806.83 ± 1	–
298.15 K, x2 = 0.5077	–	3.84 ± 0.04
298.15 K, x2 = 0.6014	–	3.41 ± 0.03
298.15 K, x2 = 0.6054	798.09 ± 1	–
298.15 K, x2 = 0.7018	790.78 ± 1	–
298.15 K, x2 = 0.7093	–	2.96 ± 0.03
298.15 K, x2 = 0.7994	–	2.63 ± 0.03
298.15 K, x2 = 0.8023	784.01 ± 1	–
298.15 K, x2 = 0.8965	778.59 ± 1	–
298.15 K, x2 = 0.9016	–	2.3 ± 0.02
298.15 K, x2 = 0.9498	776 ± 1	–
298.15 K, x2 = 0.952	–	2.16 ± 0.02
308.15 K, x2 = 0	850.13 ± 1	6.75 ± 0.07
308.15 K, x2 = 0.0454	844.13 ± 1	–
308.15 K, x2 = 0.0456	–	6.42 ± 0.06
308.15 K, x2 = 0.0969	838.11 ± 1	–
308.15 K, x2 = 0.0976	–	6.05 ± 0.06
308.15 K, x2 = 0.1954	826.9 ± 1	–
308.15 K, x2 = 0.1983	–	5.41 ± 0.05
308.15 K, x2 = 0.299	–	4.83 ± 0.05
308.15 K, x2 = 0.2993	815.83 ± 1	–
308.15 K, x2 = 0.3959	–	4.29 ± 0.04
308.15 K, x2 = 0.4037	805.56 ± 1	–
308.15 K, x2 = 0.4993	–	3.77 ± 0.04
308.15 K, x2 = 0.5042	796.44 ± 1	–
308.15 K, x2 = 0.6002	–	3.32 ± 0.03
308.15 K, x2 = 0.6072	787.93 ± 1	–
308.15 K, x2 = 0.6995	781.05 ± 1	–
308.15 K, x2 = 0.7005	–	2.93 ± 0.03
308.15 K, x2 = 0.8004	774.34 ± 1	–
308.15 K, x2 = 0.8012	–	2.58 ± 0.03
308.15 K, x2 = 0.902	–	2.27 ± 0.02
308.15 K, x2 = 0.904	768.62 ± 1	–
308.15 K, x2 = 0.9514	–	2.14 ± 0.02
308.15 K, x2 = 0.9535	766.31 ± 1	–

COCCOC [1,2-dimethoxyethane] + CCCCCCCCCCCC
97 kPa
Conditions	mass density, [1] [kg/m3]	relative permittivity, [2]
288.15 K, x2 = 0	872.06 ± 1	7.41 ± 0.07
288.15 K, x2 = 0.05	–	6.6 ± 0.07
288.15 K, x2 = 0.0501	856.95 ± 1	–
288.15 K, x2 = 0.101	843.87 ± 1	–
288.15 K, x2 = 0.1013	–	5.92 ± 0.06
288.15 K, x2 = 0.2007	–	4.89 ± 0.05
288.15 K, x2 = 0.2009	823.2 ± 1	–
288.15 K, x2 = 0.3011	807.11 ± 1	–
288.15 K, x2 = 0.3016	–	4.13 ± 0.04
288.15 K, x2 = 0.402	–	3.57 ± 0.04
288.15 K, x2 = 0.4022	794.1 ± 1	–
288.15 K, x2 = 0.5014	783.69 ± 1	–
288.15 K, x2 = 0.5015	–	3.15 ± 0.03
288.15 K, x2 = 0.6016	–	2.81 ± 0.03
288.15 K, x2 = 0.6019	774.99 ± 1	–
288.15 K, x2 = 0.6998	–	2.53 ± 0.03
288.15 K, x2 = 0.7001	767.94 ± 1	–
288.15 K, x2 = 0.8049	761.62 ± 1	–
288.15 K, x2 = 0.8051	–	2.33 ± 0.02
288.15 K, x2 = 0.9011	756.69 ± 1	–
288.15 K, x2 = 0.9019	–	2.16 ± 0.02
288.15 K, x2 = 0.9514	754.42 ± 1	–
288.15 K, x2 = 0.9515	–	2.1 ± 0.02
298.15 K, x2 = 0	861.17 ± 1	7.07 ± 0.07
298.15 K, x2 = 0.0499	846.45 ± 1	–
298.15 K, x2 = 0.05	–	6.31 ± 0.06
298.15 K, x2 = 0.1013	833.6 ± 1	–
298.15 K, x2 = 0.102	–	5.66 ± 0.06
298.15 K, x2 = 0.2014	–	4.71 ± 0.05
298.15 K, x2 = 0.2016	813.45 ± 1	–
298.15 K, x2 = 0.3016	–	4 ± 0.04
298.15 K, x2 = 0.3019	797.83 ± 1	–
298.15 K, x2 = 0.4011	–	3.48 ± 0.04
298.15 K, x2 = 0.4015	785.4 ± 1	–
298.15 K, x2 = 0.5059	774.85 ± 1	–
298.15 K, x2 = 0.5061	–	3.06 ± 0.03
298.15 K, x2 = 0.6021	766.88 ± 1	–
298.15 K, x2 = 0.6047	–	2.75 ± 0.03
298.15 K, x2 = 0.7021	760.01 ± 1	–
298.15 K, x2 = 0.7033	–	2.51 ± 0.03
298.15 K, x2 = 0.8048	754.06 ± 1	–
298.15 K, x2 = 0.8055	–	2.31 ± 0.02
298.15 K, x2 = 0.9024	–	2.15 ± 0.02
298.15 K, x2 = 0.9025	749.21 ± 1	–
298.15 K, x2 = 0.9491	747.21 ± 1	–
298.15 K, x2 = 0.9498	–	2.09 ± 0.02
308.15 K, x2 = 0	850.13 ± 1	6.75 ± 0.07
308.15 K, x2 = 0.0495	835.93 ± 1	–
308.15 K, x2 = 0.05	–	6.04 ± 0.06
308.15 K, x2 = 0.0982	824.01 ± 1	–
308.15 K, x2 = 0.1018	–	5.44 ± 0.05
308.15 K, x2 = 0.2021	803.62 ± 1	–
308.15 K, x2 = 0.2026	–	4.53 ± 0.05
308.15 K, x2 = 0.2982	789.08 ± 1	–
308.15 K, x2 = 0.3027	–	3.87 ± 0.04
308.15 K, x2 = 0.4018	776.58 ± 1	–
308.15 K, x2 = 0.4043	–	3.38 ± 0.03
308.15 K, x2 = 0.5024	766.76 ± 1	–
308.15 K, x2 = 0.505	–	3 ± 0.03
308.15 K, x2 = 0.6046	758.6 ± 1	–
308.15 K, x2 = 0.6068	–	2.7 ± 0.03
308.15 K, x2 = 0.6951	752.57 ± 1	–
308.15 K, x2 = 0.7013	–	2.48 ± 0.03
308.15 K, x2 = 0.8031	746.52 ± 1	–
308.15 K, x2 = 0.806	–	2.28 ± 0.02
308.15 K, x2 = 0.8975	–	2.14 ± 0.02
308.15 K, x2 = 0.899	741.95 ± 1	–
308.15 K, x2 = 0.9502	739.81 ± 1	–
308.15 K, x2 = 0.9512	–	2.07 ± 0.02
